According to patent US20210052593A1, “Compositions and Methods for the Treatment of Macrophage Activation Syndrome” (Children's Hospital Medical Center, priority 2018, published 2021):

Key:
MAS patients = conditions: cited from earlier work
SJIA patients = conditions: observed MAS rates in phase III trials, even if underlying SJIA well controlled; cited from earlier work
[1] = treatment of MAS; cited from earlier work
IFN-induced signature = conditions: clinical trial of anakinra in SJIA, Quartier et al; vs placebo, regardless of response status; cited from earlier work
[2] = tested on: SJIA patient with recurrent MAS; assay: Use of Tadekinig-alfa in an SJIA patient with recurrent MAS; assay type: in vivo, human; conditions: one SJIA patient with recurrent MAS
[3] = tested on: perforin-deficient mice infected with murine CMV; conditions: cited from earlier work

## rilonacept
MAS patients; literature report
  occurrence of MAS in treated patients: MAS has been seen

## canakinumab
SJIA patients
  protection against MAS: do not provide protection against MAS

## COc1cc([C@@H]2c3cc4c(cc3[C@@H](O[C@@H]3O[C@@H]5CO[C@@H](C)O[C@H]5[C@H](O)[C@H]3O)[C@H]3COC(=O)[C@H]23)OCO4)cc(OC)c1O [etoposide]
[1]
  associated toxicity / side effects: Life threatening bone marrow suppression, short-term, and hematologic malignancies later in life

## tocilizumab
SJIA patients
  protection against MAS: do not provide protection against MAS

## anakinra
MAS patients; literature reports
  treatment of MAS: successful treatment of MAS
IFN-induced signature
  strength of the IFN-induced signature: sustained increase

B1: Tadekinig-alfa (protein, UniProt O95998 31-194, looked up)
Interleukin-18-binding protein: TPVSQTTTAATASVRSTKDPCPSQPPVFPAAKQCPALEVTWPEVEVPLNGTLSLSCVACSRFPNFSILYWLGNGSFIEHLPGRLWEGSTSRERGSTGTQLCKALVLEQLTPALHSTNFSCVLVDPEQVVQRHVVLAQLWAGLRATLPPTQEALPSSHSSPQQQG
notes: recombinant IL18BP
[2]
  frequency of MAS episodes: remained unchanged
  severity of MAS episodes: reduced the severity of MAS episodes

B2: synthetic IL-18BP: synthetic IL-18 binding protein administered to mice (protein, UniProt Q9Z0M9 29-193, looked up)
Interleukin-18-binding protein: TSAPQTTATVLTGSSKDPCSSWSPAVPTKQYPALDVIWPEKEVPLNGTLTLSCTACSRFPYFSILYWLGNGSFIEHLPGRLKEGHTSREHRNTSTWLHRALVLEELSPTLRSTNFSCLFVDPGQVAQYHIILAQLWDGLKTAPSPSQETLSSHSPVSRSAGPGVA
[3]
  liver damage: ameliorated liver damage
  overall survival: no change
  production of proinflammatory cytokines: remained high
